Data published in patent EP1566447A1, “Glimepiride- and insulin-induced glycosylphosphatidylinositol-specific phospholipase C regulation” (priority 2004, dated 2005).

Tests used:
[1] = target: T1, bovine AChE (Bos taurus, UniProt P23795); experiment: selectivity: AChE activity; type: biochemical; conditions: 50 µM
T1 construct: solubilized and partially purified bovine erythrocyte AChE; from tissue; host or cells: bovine erythrocytes
Procedure: Electroporation was performed as described in "Müller, G. et al., (2000) Mol. Cell. Biol. 20: 4708-4723". Lipolysis was determined as release of glycerol or fluorescent NBD-FA from prelabeled and isoproterenol-stimulated adipocytes as described in "Müller, G. et al., (2003) Biochimie 85: 1245-1256". Gce1 was detected by photolabeling of solubilized plasma membranes or hc/IcDIGs (10-50 µg protein) with 8-N3-[^32P]cAMP and subsequent phosphorimaging as described in "Müller, G. et al., (1994) Biochemistry 33: 12149-12159". 5'-Nuc, aP and AChE activities were measured according to "Eliakim, R. et al., (1990) Biochim. Biophys. Acta 1355: 293-302". Protein was determined using the BCA protein determination kit from Pierce (Rockford, IL) and BSA as calibration standard. SDS-PAGE was performed using precast gels (Novex, San Diego, CA; 10 % Bis-Tris resolving gel, morpholinopropanesulfonic acid-SDS running buffer). Lumiimages were evaluated on a Lumilmager using Lumilmager software (Roche Diagnostics). Phosphor- and fluorescence images were processed and quantified using the Storm 860 Phosphorlmager system (Molecular Dynamics, Gelsenkirchen, Germany). Figures were constructed using the Adobe Photoshop software (Adobe Systems, Mountain View, CA).
Fig. 3: Selectivity of GPI-2350. […]

[2] = tested on: bacterial, trypanosomal, serum and rat adipocyte GPI-PLC/D; experiment: (G)PI-PLC/D of various origin, results stated collectively; type: biochemical
Procedure: GPI-PLD (rat serum) was assayed according to "Hari et al. (1997) Biochim. Biophys. Acta 1355: 293-302" by incubation with 10 µl of human placental aP solution (100 U/ml in 10 mM Hepes/NaOH, pH 7.0, 150 mM NaCl) in 100 µl of 200 mM Tris/maleate (pH 7.0) and 1 % Nonidet P-40 for 10 min at 37°C and subsequent termination of the reaction by addition of 0.4 ml of ice-cold stop buffer (10 mM Hepes/NaOH, pH 7.0, 150 mM NaCl, 0.1 mM MgCl2 and 0.01 mM zinc acetate). GPI-PLC (T. brucei) was assayed as described in "Mensa-Wilmot et al. (1995) Methods Enzymol. 250: 641-655" by incubation with 5 µl of human placental aP solution (see above) in 50 µl of 50 mM Tris/HCl (pH 8.0), 0.25 % Nonidet P-40 and 5 mM EDTA for 30 min at 37°C and subsequent termination of the reaction by addition of 0.45 ml of stop buffer. […]
Pelleted hc/IcDIGs (10-50 µg protein) or (G)PI-PLC reaction mixtures (0.5 ml) were separated into amphiphilic and hydrophilic proteins using partitioning between TX-114-enriched and depleted phases according to "Bordier, C., (1981) J. Biol, Chem. 272: 2542-2550" by suspending in 1 ml of ice-cold TX-114 (1 %), 25 mM Tris/HCl (pH 7.4), 144 mM NaCl or mixing with 0.5 ml of ice-cold TX-114 (2 %), respectively. […] After re-extraction of the lower TX-114-enriched phase, aliquots of the pooled upper TX-114-depleted phase were measured for 5'-Nuc, aP and AChE activity or precipitated (15 % polyethylene glycol 4000) for SDS-PAGE analysis.
GPI-2350 inhibits (G)PI-PLC/D of various origin with high potency and selectivity: The effect of GPI-2350 on (purified or crude) B. cereus PI-PLC, T. brucei GPI-PLC and rat serum GPI-PLD was monitored by their incubation with partially purified solubilized GPI proteins under appropriate conditions (low or high detergent conc.) in the presence of increasing concentrations of GPI-2350. […]

T1 sequence (P23795 other isoform, or with tags, fused parts or gaps): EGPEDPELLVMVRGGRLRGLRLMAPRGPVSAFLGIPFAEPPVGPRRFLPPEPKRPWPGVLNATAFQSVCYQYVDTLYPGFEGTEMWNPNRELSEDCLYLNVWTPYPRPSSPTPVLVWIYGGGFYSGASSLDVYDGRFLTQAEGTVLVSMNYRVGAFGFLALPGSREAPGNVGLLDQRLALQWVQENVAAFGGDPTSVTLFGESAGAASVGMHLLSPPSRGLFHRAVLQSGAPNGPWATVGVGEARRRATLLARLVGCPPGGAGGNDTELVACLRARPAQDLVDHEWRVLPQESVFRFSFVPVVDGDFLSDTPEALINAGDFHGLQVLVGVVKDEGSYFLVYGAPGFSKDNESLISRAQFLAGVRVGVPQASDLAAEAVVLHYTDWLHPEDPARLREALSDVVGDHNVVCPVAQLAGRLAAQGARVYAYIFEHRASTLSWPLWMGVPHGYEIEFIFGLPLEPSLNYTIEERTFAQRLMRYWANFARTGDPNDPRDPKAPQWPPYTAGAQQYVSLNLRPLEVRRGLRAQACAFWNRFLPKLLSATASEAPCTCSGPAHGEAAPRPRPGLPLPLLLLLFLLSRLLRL

Q: Which results are given for `CCCCCCCCCCCCP1(=O)O[C@@H]2[C@H](O)[C@@H](O)[C@H](O)[C@@H](O)[C@@H]2O1` (mixture of isomers) [GPI-2350, myo-inositol-1,2-cyclo-dodecylphosphonic acid]?
A: effect on AChE activity [1]: not significantly affected; blocked GPI-PLC/D by ([2]; 50 µM, one range for all four enzymes, Fig. 3): 60 to 95%; reversal of half-maximal inhibition upon 10-fold dilution ([2]; bacterial and trypanosomal (G)PI-PLC, dilution with excess of fresh GPI-protein substrate): completely reversed; IC50 ([2]; bacterial, trypanosome and serum GPI-PLC and GPI-PLD, one range for all): 0.2 to 10 µM
